What was measured:
[1] = in vivo; cited from earlier work
injured hind paw = details: rat, in vivo; cited from earlier work
[2] = Skin permeation with human abdominal cadaver skin and absorption estimates drawn from it; details: assuming 3.8 fold increase in drug delivery

Structure (SMILES)	half-life, rapid phase one [1] [h]	half-life, slow phase two [1] [h]	antinociception (injured hind paw)	estimated increased penetration with damaged stratum corneum [2] [mg]	systemic effects following topical application (injured hind paw)
CN(C)C(=O)C(CCN1CCC(O)(c2ccc(Cl)cc2)CC1)(c1ccccc1)c1ccccc1 [loperamide, 4-[4-(4-Chlorophenyl)-4-hydroxypiperidin-1-yl]-N,N-dimethyl-2,2-diphenylbutanamide]	2.3	23	rapid dose-dependent antinociception	0.057	
CN1CC[C@]23c4c5ccc(O)c4O[C@H]2[C@@H](O)C=C[C@H]3[C@H]1C5 [morphine]					revealed systemic effects

From patent publication US20180318279A1 (priority 2015, published 2018)
